Experimental data reported in ChEMBL document CHEMBL4680119, “Battle tactics against MMP-9; discovery of novel non-hydroxamate MMP-9 inhibitors endowed with PI3K/AKT signaling attenuation and caspase 3/7 activation via Ugi bis-amide synthesis” (Eur J Med Chem, 2020).
Activity calls are given as the source filed them. The calls are words filed in the database; no cut-off is given here.

Legend:
NFS-60 [1] = assay: Induction of cell morphological changes in […] cells assessed as loss in cell shape by microscopic analysis; assay type: functional, cell-based; conditions: Mus musculus
WI-38 = assay: Cytotoxicity against human WI-38 cells assessed as reduction in cell viability by MTT assay; assay type: cell-based; conditions: for IC50: Homo sapiens, WI-38; for EC100: human, wi-38
Interstitial collagenase = target: T1, Interstitial collagenase (Homo sapiens, UniProt P03956); assay: Inhibition of MMP-1 (unknown origin) by colorimetric assay
T1 sequence (P03956 whole entry): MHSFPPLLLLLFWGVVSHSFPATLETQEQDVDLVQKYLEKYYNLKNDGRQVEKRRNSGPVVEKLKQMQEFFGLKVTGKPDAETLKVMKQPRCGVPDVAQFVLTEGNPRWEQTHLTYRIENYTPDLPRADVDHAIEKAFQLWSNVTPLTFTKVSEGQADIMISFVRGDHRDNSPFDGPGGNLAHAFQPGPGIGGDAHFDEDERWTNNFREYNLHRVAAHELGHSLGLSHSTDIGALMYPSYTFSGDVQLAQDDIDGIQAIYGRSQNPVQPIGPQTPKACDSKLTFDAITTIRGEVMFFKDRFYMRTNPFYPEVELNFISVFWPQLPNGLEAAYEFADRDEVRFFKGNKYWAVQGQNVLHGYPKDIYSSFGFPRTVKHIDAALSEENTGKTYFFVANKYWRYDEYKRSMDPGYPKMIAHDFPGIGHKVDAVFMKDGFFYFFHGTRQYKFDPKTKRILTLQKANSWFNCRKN

[2] = Anticancer activity against […] cells assessed as reduction in cell viability by MTT assay; assay type: functional, cell-based; conditions: Mus musculus
[3] = Induction of apoptosis in […] cells assessed as total apoptosis by annexinV/propidium iodide staining based by flow cytometry (reference value: 0.495+/- 0.01%); assay type: functional, Mus musculus
Collagenase 3 = Collagenase 3 (Homo sapiens, UniProt P45452); assay: Inhibition of MMP-13 (unknown origin) by colorimetric assay
[4] = Induction of apoptosis in […] cells assessed as early apoptosis by annexinV/propidium iodide staining based by flow cytometry (reference value: 0.02+/- 0.01%); assay type: functional, Mus musculus
HepG2 [5] = assay: Induction of apoptosis in human HepG2 cells assessed as late apoptosis by annexinV/propidium iodide staining based by flow cytometry (reference value: 0.1+/- 0.001%); assay type: functional
MCF7 [6] = assay: Induction of apoptosis in human MCF7 cells assessed as cell shrinkage by microscopic analysis; assay type: functional, cell-based
HepG2 [7] = assay: Induction of apoptosis in human HepG2 cells assessed as total apoptosis by annexin/propidium iodide staining based by flow cytometry (reference value: 0.169+/- 0.02%); assay type: functional
MCF7 [8] = assay: Induction of apoptosis in human MCF-7 cells assessed as late apoptosis by annexinV/propidium iodide staining based by flow cytometry (reference value: 0.01+/- 0.001%); assay type: functional
[9] = target: 72 kDa type IV collagenase (Homo sapiens, UniProt P08253); assay: Inhibition of MMP-2 (unknown origin) by colorimetric assay
HepG2 [10] = assay: Inhibition of cell migration in human HepG2 cells incubated for 24 hrs by wound healing assay; assay type: functional
HepG2 [11] = assay: Induction of apoptosis in human HepG2 cells assessed as increase in caspase-3/7 activation by flow cytometric analysis; assay type: functional
[12] = Induction of apoptosis in […] cells assessed as late apoptosis by annexinV/propidium iodide staining based by flow cytometry (reference value: 0.015+/- 0.01%); assay type: functional, Mus musculus
HepG2 [13] = assay: Anticancer activity against human HepG2 cells assessed as reduction in cell viability by MTT assay; assay type: functional, cell-based
[14] = Induction of apoptosis in […] cells assessed as increase in caspase-3/7 activation by flow cytometric analysis; assay type: functional, Mus musculus
MCF7 [15] = assay: Induction of apoptosis in human MCF-7 cells assessed as early apoptosis by annexinV/propidium iodide staining based by flow cytometry (reference value: 0.47+/- 0.01%); assay type: functional
[16] = target: Matrix metalloproteinase-9 (Homo sapiens, UniProt P14780); assay: Inhibition of MMP-9 (unknown origin) by colorimetric assay
MCF7 [17] = assay: Induction of apoptosis in human MCF7 cells assessed as increase in caspase-3/7 activation by flow cytometric analysis; assay type: functional
MCF7 [18] = assay: Induction of apoptosis in human MCF-7 cells assessed as total apoptosis by annexin V/propidium iodide staining based by flow cytometry (reference value: 0.48+/- 0.01%); assay type: functional
HepG2 [19] = assay: Induction of apoptosis in human HepG2 cells assessed as early apoptosis by annexinV/propidium iodide staining based by flow cytometry (reference value: 0.78+/- 0.09%); assay type: functional
MCF7 [20] = assay: cells; conditions: Homo sapiens
Description: Anticancer activity against human MCF7 cells assessed as reduction in cell viability by MTT assay

NFS-60 [21] = assay: Induction of apoptosis in […] cells assessed as cell shrinkage by microscopic analysis; assay type: functional, cell-based
MCF7 [22] = assay: Induction of cell morphological changes in human MCF7 cells assessed as loss in cell shape by microscopic analysis; assay type: functional, cell-based
HepG2 [23] = assay: Induction of apoptosis in human HepG2 cells assessed as cell shrinkage by microscopic analysis; assay type: functional, cell-based
HepG2 [24] = assay: Induction of cell morphological changes in human HepG2 cells assessed as loss in cell shape by microscopic analysis; assay type: functional, cell-based
in vitro = conditions: human, WI38 cells and HepG2 cells
Description: Selectivity index, ratio of IC50 for human WI38 cells to IC50 for human HepG2 cells

72 kDa type IV collagenase, sequence (P08253 whole entry): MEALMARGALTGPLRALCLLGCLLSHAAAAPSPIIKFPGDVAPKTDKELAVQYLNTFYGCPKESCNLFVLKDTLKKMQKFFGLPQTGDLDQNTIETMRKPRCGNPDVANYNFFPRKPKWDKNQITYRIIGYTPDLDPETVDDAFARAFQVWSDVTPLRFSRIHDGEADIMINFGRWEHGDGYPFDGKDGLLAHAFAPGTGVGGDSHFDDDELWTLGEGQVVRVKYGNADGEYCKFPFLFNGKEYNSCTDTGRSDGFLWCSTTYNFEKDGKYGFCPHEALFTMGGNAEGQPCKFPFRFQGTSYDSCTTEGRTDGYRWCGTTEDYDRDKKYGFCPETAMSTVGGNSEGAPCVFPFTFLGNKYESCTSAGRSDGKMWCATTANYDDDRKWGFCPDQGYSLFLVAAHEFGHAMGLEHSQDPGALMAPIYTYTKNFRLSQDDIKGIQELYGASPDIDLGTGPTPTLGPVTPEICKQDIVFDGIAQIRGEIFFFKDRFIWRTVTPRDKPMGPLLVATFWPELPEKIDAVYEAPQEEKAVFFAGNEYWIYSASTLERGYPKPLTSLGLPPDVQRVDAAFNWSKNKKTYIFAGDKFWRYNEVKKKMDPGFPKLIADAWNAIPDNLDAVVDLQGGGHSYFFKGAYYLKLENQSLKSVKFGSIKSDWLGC
Matrix metalloproteinase-9, sequence (P14780 whole entry): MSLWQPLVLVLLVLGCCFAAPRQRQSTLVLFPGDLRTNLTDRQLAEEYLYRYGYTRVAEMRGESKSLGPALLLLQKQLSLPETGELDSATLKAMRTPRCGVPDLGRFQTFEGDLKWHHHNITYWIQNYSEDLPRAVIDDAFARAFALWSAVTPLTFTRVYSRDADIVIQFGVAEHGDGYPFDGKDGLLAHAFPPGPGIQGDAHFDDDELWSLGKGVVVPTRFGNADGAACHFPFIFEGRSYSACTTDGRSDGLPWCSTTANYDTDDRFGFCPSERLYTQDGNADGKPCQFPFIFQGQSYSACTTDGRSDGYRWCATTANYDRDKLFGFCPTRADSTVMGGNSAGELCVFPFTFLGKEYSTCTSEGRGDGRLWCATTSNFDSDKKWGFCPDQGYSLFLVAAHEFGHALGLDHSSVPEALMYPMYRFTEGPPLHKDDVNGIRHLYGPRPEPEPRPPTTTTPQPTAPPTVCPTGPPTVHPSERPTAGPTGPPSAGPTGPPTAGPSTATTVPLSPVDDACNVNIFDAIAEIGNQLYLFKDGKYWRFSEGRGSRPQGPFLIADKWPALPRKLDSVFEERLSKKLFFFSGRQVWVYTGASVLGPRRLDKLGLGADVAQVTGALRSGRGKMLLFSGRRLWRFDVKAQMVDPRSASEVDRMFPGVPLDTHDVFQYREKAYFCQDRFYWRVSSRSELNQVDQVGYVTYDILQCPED

SMILES | Activity (NFS-60 [1]) | IC50 (WI-38) | EC100 (WI-38) | IC50 (Interstitial collagenase) | IC50 [2] | Activity [3] | IC50 (Collagenase 3) | Activity [4] | Activity (HepG2 [5]) | Activity (HepG2 [7]) | Activity (MCF7 [8]) | Activity (HepG2 [11]) | Activity [12] | Activity [14] | Activity (MCF7 [15]) | Activity (MCF7 [17]) | Activity (MCF7 [18]) | Activity (HepG2 [19]) | Activity (MCF7 [22]) | Activity (HepG2 [24]) | other results
O=C(Nc1ccc([N+](=O)[O-])cc1)C(c1ccccc1)N(C(=O)c1ccccc1I)c1ccccc1 (stereo unspecified) | Active | 0.0351 µM | 10.3 nM | 0.104 µM | 0.0055 µM | 68.07% | 0.28 µM | 9.99% | 55.35% | 69.375% | 29.82% | 70.708% | 58.08% | 63.86% | 31.78% | 64.93% | 61.605% | 14.02% | Active | Active | Activity (MCF7 [6]): Active; IC50 [9]: 0.266 µM; inhibition (INH) (HepG2 [10]): 59.35%; IC50 (HepG2 [13]): 0.0031 µM; IC50 [16]: 0.00449 µM; IC50 (MCF7 [20]): 0.0069 µM; Activity (NFS-60 [21]): Active; Activity (HepG2 [23]): Active; selectivity ratio (in vitro): 11.3
O=C(Nc1ccc([N+](=O)[O-])cc1)C(c1ccc([N+](=O)[O-])cc1)N(C(=O)c1ccc(C(F)(F)F)cc1)c1ccccc1 (stereo unspecified) | Active | 0.374 µM | 107.4 nM | 0.041 µM | 0.00361 µM | 67.485% | 0.113 µM | 39.15% | 43.95% | 70.415% | 50.72% | 70.745% | 28.33% | 62.703% | 18.28% | 65.725% | 69.005% | 26.46% | Active | Active | Activity (MCF7 [6]): Active; IC50 [9]: 0.139 µM; inhibition (INH) (HepG2 [10]): 93.77%; IC50 (HepG2 [13]): 0.0022 µM; IC50 [16]: 0.00746 µM; IC50 (MCF7 [20]): 0.0036 µM; Activity (NFS-60 [21]): Active; Activity (HepG2 [23]): Active; selectivity ratio (in vitro): 170
O=C(Nc1ccc([N+](=O)[O-])cc1)C(c1ccccc1)N(Cc1ccccc1)C(=O)Cc1ccccc1 (stereo unspecified) | Active | 0.314 µM | 93.5 nM | 0.047 µM | 0.0058 µM | 55.35% | 0.295 µM | 16.26% | 36.1% | 55.19% | 21.79% | 59.13% | 39.08% | 53.86% | 27.39% | 51.928% | 49.19% | 19.08% | Active | Active | IC50 [9]: 0.221 µM; inhibition (INH) (HepG2 [10]): 71.25%; IC50 (HepG2 [13]): 0.0057 µM; IC50 [16]: 0.00556 µM; IC50 (MCF7 [20]): 0.0066 µM; selectivity ratio (in vitro): 55.1
COc1cccc2c1C(=O)c1c(O)c3c(c(O)c1C2=O)C[C@@](O)(C(=O)CO)C[C@@H]3O[C@H]1C[C@H](N)[C@H](O)[C@H](C)O1 [DOXORUBICIN] | Active | – | 12.1 nM | – | 0.013 µM | 34.595% | – | 11.379% | 25.49% | 36.08% | 20.445% | 48.09% | 23.215% | 45.39% | 13.53% | 42.94% | 33.974% | 10.59% | Active | Active | –
